From patent US12570655B2, “Cysteine covalent modifiers of AKT1 and uses thereof” (Terremoto Biosciences, Inc., priority 2023, dated 2026) come the findings set out here.

Holding throughout (assay type): cell-based
The target of test [1] is T1, AKT1 E17K (Homo sapiens, UniProt P31749, E17K).
T1 construct: expressed in transfected cells; host or cells: HEK293
Briefly: Live cell AKT1 E17K target engagement by NanoBRET competitive probe displacement. The following applies: HEK293 cells transfected with kinase-NanoLuciferase fusion, 2 h at 37° C. In short, it runs like this: (§1)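 HEK293 cells transiently expressing kinase–NanoLuc fusions overnight; treated with serial compound dilutions plus fluorescent ATP-competitive tracer at ~EC50, 2 h at 37 °C. BRET ratio E600/E460 read after substrate and extracellular luciferase inhibitor; IC50 from log(inhibitor) vs response Hill fit.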
In general terms: In BRET a luciferase serves as donor, and the signal depends on an acceptor being close.

Test [2] addresses T2, AKT1 WT (Homo sapiens, UniProt P31749).
T2 construct: expressed in transfected cells; host or cells: HEK293
Briefly: Live cell AKT1 WT target engagement by NanoBRET competitive probe displacement. The following applies: HEK293 cells transfected with kinase-NanoLuciferase fusion, 2 h at 37° C. The method, boiled down:
as §1

Test [3] has as its target T3, AKT2 (Homo sapiens, UniProt P31751).
T3 construct: expressed in transfected cells; host or cells: HEK293
Briefly: Live cell AKT2 target engagement by NanoBRET competitive probe displacement. The following applies: HEK293 cells transfected with kinase-NanoLuciferase fusion, 2 h at 37° C. The method, boiled down:
as §1

Test [4] concerns LAPC4 prostate cancer cells. Put plainly: Antiproliferative effects in LAPC4 cells (CellTiter Glo). The following applies: LAPC4 cells (AKT1 E17K allele), read-out: LAPC4 proliferation IC50. The method, boiled down: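 LAPC4 prostate cancer cells carrying AKT1 E17K, grown in IMDM with 12% FBS, were seeded at 1,000 cells/well and exposed to compound dilutions for 72 h. Viability was read as intracellular ATP by CellTiter Glo luminescence, and IC50 was fitted with a log(inhibitor) vs. response Hill equation.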
On the technique in general: Cellular ATP, detected with luciferase, serves as a proxy for viable cell number.

pIC50: −log10 of the molar value. Read-outs that look alike come from different tables or passages of the source.

T1 sequence (P31749 whole entry E17K): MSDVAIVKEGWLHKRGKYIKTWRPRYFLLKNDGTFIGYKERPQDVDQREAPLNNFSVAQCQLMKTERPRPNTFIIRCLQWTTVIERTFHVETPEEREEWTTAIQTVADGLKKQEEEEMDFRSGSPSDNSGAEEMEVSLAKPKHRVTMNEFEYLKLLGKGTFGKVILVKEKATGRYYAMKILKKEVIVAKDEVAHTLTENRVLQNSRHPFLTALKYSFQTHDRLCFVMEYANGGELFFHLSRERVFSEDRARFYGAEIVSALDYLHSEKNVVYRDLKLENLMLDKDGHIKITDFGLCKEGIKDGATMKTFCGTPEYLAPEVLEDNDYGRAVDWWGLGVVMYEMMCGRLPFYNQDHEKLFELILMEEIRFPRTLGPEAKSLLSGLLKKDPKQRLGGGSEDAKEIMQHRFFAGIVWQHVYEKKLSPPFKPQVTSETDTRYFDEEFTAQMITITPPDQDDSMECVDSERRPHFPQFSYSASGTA
T2 sequence (P31749 whole entry): as the sequence (P31749 whole entry E17K) above, with K17E counted along it
T3 sequence (P31751 whole entry): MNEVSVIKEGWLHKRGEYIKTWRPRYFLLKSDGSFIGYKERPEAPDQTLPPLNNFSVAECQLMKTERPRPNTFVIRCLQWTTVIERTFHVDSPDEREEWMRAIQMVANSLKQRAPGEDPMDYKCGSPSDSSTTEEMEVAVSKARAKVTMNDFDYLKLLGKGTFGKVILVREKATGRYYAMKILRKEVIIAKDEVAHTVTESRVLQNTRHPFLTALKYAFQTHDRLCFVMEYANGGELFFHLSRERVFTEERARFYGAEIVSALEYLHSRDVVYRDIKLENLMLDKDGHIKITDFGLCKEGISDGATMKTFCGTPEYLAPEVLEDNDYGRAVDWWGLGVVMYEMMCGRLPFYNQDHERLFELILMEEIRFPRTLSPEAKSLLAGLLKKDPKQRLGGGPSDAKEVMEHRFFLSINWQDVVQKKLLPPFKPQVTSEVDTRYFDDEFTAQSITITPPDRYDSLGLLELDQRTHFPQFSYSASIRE

`C=CC(=O)N1CCC(N[C@H]2CCc3cc(-n4c(-c5cccnc5N)nc5ccc(C6CC6)nc54)ccc32)C(C)C1` (single isomer, unassigned) [Example 232, 1-((3*,4*)-4-(((S)-5-(2-(2-aminopyridin-3-yl)-5-cyclopropyl-3H-imidazo[4,5-b]pyridin-3-yl)-2,3-dihydro-1H-inden-1-yl)amino)-3-methylpiperidin-1-yl)prop-2-en-1-one]: the pIC50 in test [1] is 7.68; in test [2], 5.97; in test [3], 6.77; in test [4] (72 h), 6.19.
As to `C=CC(=O)N1CCC(N[C@H]2CCc3cc(-n4c(-c5cccnc5N)nc5ccc(-n6nccn6)nc54)ccc32)CC1` [Example 33, 1-(4-{[(1S)-5-[2-(2-aminopyridin-3-yl)-5-(1,2,3-triazol-2-yl)imidazo[4,5-b]pyridin-3-yl]-2,3-dihydro-1H-inden-1-yl]amino}piperidin-1-yl)prop-2-en-1-one], the pIC50 in test [1] was 7.68; in test [2], 7.67; in test [3] it was 6.82; in test [4] (Homo sapiens, LAPC4, 72 h), 7.28.
With `C=CC(=O)N1CCC(N[C@H]2CCc3cc(-n4c(-c5cccnc5N)nc5ccc(-n6ccc(C)n6)nc54)ccc32)CC1` [Example 243, 1-(4-{[(1S)-5-[2-(2-aminopyridin-3-yl)-5-(3-methylpyrazol-1-yl)imidazo[4,5-b]pyridin-3-yl]-2,3-dihydro-1H-inden-1-yl]amino}piperidin-1-yl)prop-2-en-1-one], the pIC50 is 7.76 in test [1]; 6.66 in test [2]; 7.01 in test [3]; 6.82 in test [4] (Homo sapiens, LAPC4, 72 h).
In the case of `C=CC(=O)N1CC2CC[C@@H]1CC2N[C@H]1CCc2cc(-n3c(-c4cccnc4N)nc4ccc(-n5cccn5)nc43)ccc21` (single isomer, unassigned) [Example 132, 1-[(1R,4R,5*)-5-{[(1S)-5-[2-(2-aminopyridin-3-yl)-5-(pyrazol-1-yl)imidazo[4,5-b]pyridin-3-yl]-2,3-dihydro-1H-inden-1-yl]amino}-2-azabicyclo[2.2.2]octan-2-yl]prop-2-en-1-one], the pIC50 is 6.49 in test [1], 7.01 in test [2], 5.65 in test [3] and 5.82 in test [4] (72 h).
For `C=CC(=O)N1CCC(N[C@@H]2c3ccc(-n4c(-c5cccnc5N)nc5ccc(-n6ccc(F)n6)nc54)cc3CC2F)C[C@@H]1C` (single isomer, unassigned) [Example 270, 1-((2S,4*)-4-(((1R,2*)-5-(2-(2-aminopyridin-3-yl)-5-(3-fluoro-1H-pyrazol-1-yl)-3H-imidazo[4,5-b]pyridin-3-yl)-2-fluoro-2,3-dihydro-1H-inden-1-yl)amino)-2-methylpiperidin-1-yl)prop-2-en-1-one], the pIC50 in test [1] was 8.14; in test [2], 6.79; in test [3] it was 7.68; in test [4] (72 h), 7.12.
For the molecule `C=CC(=O)N1CCC(N[C@H]2CCc3cc(-n4c(-c5ccccc5)nc5ccc(-n6ccc(F)n6)nc54)ccc32)CC1` [Example 282, 1-(4-{[(1S)-5-[5-(3-fluoropyrazol-1-yl)-2-phenylimidazo[4,5-b]pyridin-3-yl]-2,3-dihydro-1H-inden-1-yl]amino}piperidin-1-yl)prop-2-en-1-one], the pIC50 in test [1] is 7.82; in test [2], 5.80; in test [3], 7.07; in test [4] (Homo sapiens, LAPC4, 72 h) it was 6.33.
Turning to `C=CC(=O)N1CCC(N[C@H]2CCc3cc(-n4c(-c5cccnc5N)nc5ccc(C6CC6)nc54)ccc32)C(C)C1` (single isomer, unassigned) [Example 229, 1-((3*,4*)-4-(((S)-5-(2-(2-aminopyridin-3-yl)-5-cyclopropyl-3H-imidazo[4,5-b]pyridin-3-yl)-2,3-dihydro-1H-inden-1-yl)amino)-3-methylpiperidin-1-yl)prop-2-en-1-one], the pIC50 in test [1] was 7.66; in test [2], 6.12; in test [3], 7.01; in test [4] (Homo sapiens, LAPC4, 72 h), 6.48.
Turning to `C=CC(=O)N1[C@H](C)CC(N[C@H]2CCc3cc(-n4c(-c5cccnc5N)nc5ccc(-n6cccn6)nc54)ccc32)C[C@@H]1C` (single isomer, unassigned) [Example 87, 1-((2S,4*,6R)-4-(((R)-5-(2-(2-aminopyridin-3-yl)-5-(1H-pyrazol-1-yl)-3H-imidazo[4,5-b]pyridin-3-yl)-2,3-dihydro-1H-inden-1-yl)amino)-2,6-dimethylpiperidin-1-yl)prop-2-en-1-one], the pIC50 in test [1] was 6.78; in test [2], 7.59; in test [3], 6.24; in test [4] (72 h), 6.44.
`C=CC(=O)N1CCC(N[C@H]2CCc3cc(-n4c(-c5cccnc5N)nc5ccc(-n6cccn6)nc54)ccc32)C(OC)C1` (single isomer, unassigned) [Example 117, 1-((3*,4*)-4-(((S)-5-(2-(2-aminopyridin-3-yl)-5-(1H-pyrazol-1-yl)-3H-imidazo[4,5-b]pyridin-3-yl)-2,3-dihydro-1H-inden-1-yl)amino)-3-methoxypiperidin-1-yl)prop-2-en-1-one]: the pIC50 in test [1] is 6.32; in test [2] it was 7.38; in test [3] it was 6.11; in test [4] (72 h), 6.25.
With `C=CC(=O)N1CCC(N[C@@H]2c3ccc(-n4c(-c5cccnc5N)nc5ccc(-n6cccn6)nc54)cc3CC2F)C(C)C1` (single isomer, unassigned) [Example 289, 1-[(3*,4*)-4-{[(1R,2*)-5-[2-(2-aminopyridin-3-yl)-5-(pyrazol-1-yl)imidazo[4,5-b]pyridin-3-yl]-2-fluoro-2,3-dihydro-1H-inden-1-yl]amino}-3-methylpiperidin-1-yl]prop-2-en-1-one], the pIC50 in test [1] was 7.71; in test [2], 6.10; in test [3], 6.84; in test [4] (72 h), 6.17.
As to `Nc1ncccc1-c1nc2ccc(-n3cccn3)nc2n1-c1ccc2c(c1)CC[C@@H]2NC1CCN(C(=O)C(F)Cl)CC1` (stereo partly drawn) [Example 173, 1-(4-{[(1S)-5-[2-(2-aminopyridin-3-yl)-5-(pyrazol-1-yl)imidazo[4,5-b]pyridin-3-yl]-2,3-dihydro-1H-inden-1-yl]amino}piperidin-1-yl)-2-chloro-2-fluoroethanone], the pIC50 in test [1] was 7.25; in test [2], 5.87; in test [3], 6.49; in test [4] (Homo sapiens, LAPC4, 72 h), 6.13.
In the case of `C=CC(=O)N1CCC(N[C@H]2CCc3cc(-n4c(-c5cccnc5N)nc5ccc(-n6cccn6)nc54)ccc32)C(C)C1` (single isomer, unassigned) [Example 101, 1-((3*,4*)-4-(((S)-5-(2-(2-aminopyridin-3-yl)-5-(1H-pyrazol-1-yl)-3H-imidazo[4,5-b]pyridin-3-yl)-2,3-dihydro-1H-inden-1-yl)amino)-3-methylpiperidin-1-yl)prop-2-en-1-one], the pIC50 in test [1] was 7.08; in test [2], 7.74; in test [3], 6.54; in test [4] (72 h), 6.57.
For the molecule `C=CC(=O)N1CCC(N[C@H]2CCc3cc(-n4c(-c5cccnc5N)nc5ccc(-n6ccc(COC)n6)nc54)ccc32)CC1` [Example 280, 1-(4-{[(1S)-5-[2-(2-aminopyridin-3-yl)-5-[3-(methoxymethyl)pyrazol-1-yl]imidazo[4,5-b]pyridin-3-yl]-2,3-dihydro-1H-inden-1-yl]amino}piperidin-1-yl)prop-2-en-1-one], the pIC50 in test [1] was 7.69; in test [2] it was 6.90; in test [3] it was 7.09; in test [4] (Homo sapiens, LAPC4, 72 h), 6.98.
On the same counts, the results for `C=C(C)C(=O)Nc1ccccc1C(=O)N[C@H]1CCc2cc(-n3c(-c4cccnc4N)nc4ccc(-n5cccn5)nc43)ccc21` [Example 17, (S)-N-(5-(2-(2-aminopyridin-3-yl)-5-(1H-pyrazol-1-yl)-3H-imidazo[4,5-b]pyridin-3-yl)-2,3-dihydro-1H-inden-1-yl)-2-methacrylamidobenzamide] are 6.84, 7.37, 5.99 and 5.63.
On to `C=CC(=O)N1CC2(CCC(N[C@H]3CCc4cc(-n5c(-c6cccnc6N)nc6ccc(-n7cccn7)nc65)ccc43)C2)C1` (single isomer, unassigned) [Example 91, 1-((*)-6-(((S)-5-(2-(2-aminopyridin-3-yl)-5-(1H-pyrazol-1-yl)-3H-imidazo[4,5-b]pyridin-3-yl)-2,3-dihydro-1H-inden-1-yl)amino)-2-azaspiro[3.4]octan-2-yl)prop-2-en-1-one], for which the pIC50 in test [1] is 6.94; in test [2] it was 7.44; in test [3], 6.25; in test [4] (72 h), 6.45.
Regarding `C=CC(=O)N1CCC(N[C@H]2CCc3cc(-n4c(-c5cccnc5N)nc5ccc(-n6cccn6)nc54)ccc32)C(OC)C1` (single isomer, unassigned) [Example 115, 1-((3*,4*)-4-(((S)-5-(2-(2-aminopyridin-3-yl)-5-(1H-pyrazol-1-yl)-3H-imidazo[4,5-b]pyridin-3-yl)-2,3-dihydro-1H-inden-1-yl)amino)-3-methoxypiperidin-1-yl)prop-2-en-1-one], the pIC50 in test [1] was 8.03; in test [2] it was 8.09; in test [3] it was 7.39; in test [4] (72 h), 7.39.
